Test results taken from US8501695B2, “Tissue kallikrein for the treatment of diseases associated with amyloid protein” (DiaMedica, Inc., priority 2007, dated 2013).

Experiments:
[1] = test system: rat mixed cortical cultures (RMCC); assay: Aβ1-42 toxicity in rat mixed cortical cultures, LDH measurement; format: cell-based; details: for LDH release following Aβ1-42 insult: study arm A, B or C
Description: (§1) Whether pre-treatment with tissue kallikrein protects rat mixed cortical cultures against exposure to human amyloid beta peptide (Aβ1-42) was investigated. Cell death was analyzed by LDH-release, an indication of necrosis, and cell viability was also analyzed by neuronal cell count. First (Study Arm A), tissue kallikrein was added to the cells only prior to the Aβ1-42 insult (at −24 h and at −30 min). Whereas in the second part (Study Arm B), tissue kallikrein was added to the cells prior to (−30 min) and also at +24 h after the Aβ1-42 insult. At the +24 h time point, cell culture media were not changed (tissue kallikrein or corresponding amount of vehicle was added to the wells), whereas at −24 h and −30 min time point cell culture media were changed.
(§2) […] Cell Culture. Mixed cortical cultures were prepared from E18 Wistar rat embryos (National Animal Center, Kuopio, Finland). The cortices were dissected out, and the tissue cut to small pieces. The cells were separated by 15-min incubation with DNase and papain. The cells were collected by centrifugation (1500 rpm, 5 min). The tissue was triturated with a pipette and the cells were plated on poly-L-lysine-coated 48-well plates, 300,000 cells/cm^2, in MEM (2 g/L glucose) supplemented with 2 mM glutamine, 0.1 μg/ml gentamicin, 10% heat-inactivated fetal bovine serum (FBS-HI) and 10% heat-inactivated horse serum (HS-HI). After 3-4 h, the media were changed to MEM (2 g/L glucose) supplemented with 2 mM glutamine, 0.1 μg/ml gentamicin, 5% HS-HI. After three days in vitro, media containing MEM (2 g/L glucose) supplemented with glutamine, gentamicin, and 5% of both sera were changed to the cells. On day 6 in vitro, the unwanted cell division was inhibited by adding cytosine arabinoside (10 μM final concentration) for 24 h. The cultures were refed with MEM (2 g/L glucose) supplemented with glutamine, gentamicin, and 5% HS-HI before experiments.
(§3) Aβ1-42 Exposure. Tissue kallikrein (SEQ ID NO:1) was dissolved and further diluted in MEM supplemented with glucose, glutamine, gentamicin, and 5% HS-HI. As a control for total neuronal death, 300 μM N-methyl-D-aspartic acid (NMDA) for 48 h was used, and 10 μM Aβ1-42 for 48 h was used to induce approximately 30-50% cell death. Wells treated with media only served as 0-control. Tissue kallikrein or vehicle was pipetted to the cells −24 h and −30 min before adding 10 μM Aβ1-42 (final concentration). Tissue kallikrein or vehicle was again pipetted to the cells at +24 h after exposure.
LDH Measurement. After 48 h, the culture media of all wells were collected, and possible cell debris was removed by centrifugation (13,000 rpm for 3 min). A 100 μl aliquot was pipetted into a microtiter plate as duplicates, and equal amount of LDH reagent was pipetted to the wells. The absorbance at 340 nm was measured immediately using a 3 min kinetic measurement protocol in Multiskan ELISA reader (Labsystems, Finland). The change in absorbance/min was determined, which was directly proportional to the released LDH. The remaining supernatant (50 μl) was snap-frozen in dry ice for storage.
(§4) Data Analysis. The number of wells per compound concentration used was 6 (n=6). Five concentrations of Tissue kallikrein were studied (0.001, 0.01, 0.1, 1, 10 μg/ml) in both study arms. Statistical analysis was performed using StatsDirect statistical software. The values were analyzed by one-way ANOVA followed by Dunnet's test (comparison to the vehicle-treated group). Results are presented as mean±standard deviation (SD) and differences are considered to be statistically significant at the P<0.05 level.

[2] = test system: rat mixed cortical cultures (RMCC); assay: Aβ1-42 toxicity in rat mixed cortical cultures, neuronal survival (NeuN cell count); format: cell-based; details: 1 nM, 5 nM, 10 nM, 50 nM and 100 nM; study arm A, B or C
Description: as §1, §2, §3
Immunocytochemistry for Neuronal Survival. For neuronal counts, the cultures were fixed with 4% paraformaldehyde in 0.01 M PBS for 30 min and washed twice with PBS. The fixed cells were first permeabilized, and non-specific binding blocked by 30 min incubation with blocking buffer containing 1% bovine serum albumin and 0.3% Triton® X-100 in PBS. Anti-neuronal nuclei antibody (anti-NeuN, dilution 1:500, Chemicon, Temecula, Calif.) was used as the primary antibody. The cells were incubated with the primary antibody for 48 h, followed by incubation with a biotinylated secondary antibody (1:200, Vector Labs) for 2 h, and the avidin-biotin-peroxidase complex (ABC-reagent, 1:200, Vector ABC Elite Kit, Vector Labs) for 2 h. The positive cells were visualized using Ni-enhanced DAB as a substrate (DAB Substrate kit, Vector Labs). The NeuN immunopositive neurons were counted using a light microscope. Altogether, 2 fields of each well were counted. The results are shown as percent viable neurons.
as §4, with “Five concentrations of Tissue kallikrein were studied (0.001, 0.01, 0.1, 1, 10 μg/ml) in both study arms.” left out

lysyl-bradykinin [kallidin, reference compound]
LDH release following Aβ1-42 insult ([1]; 1 nM, 5 nM, 10 nM, 50 nM and 100 nM): did not alter LDH release
LDH release following Aβ1-42 insult ([1]; 1 μM and 10 μM): did alter LDH release
cell death following Aβ1-42 insult (LDH) ([1]; 100 μM, compared to Aβ1-42 insult alone): significantly potentated cell death
cell counts (survival) following Aβ1-42 insult [2]: did not affect cell counts
